Test system: 616215-338-R-J1-PDC complex spheroid viability
Assay: Anticancer human tumor 616215-338-R-J1-PDC patient-derived colon adenocarcinoma cell line growth inhibition [POLQ]
Settings: for IC50: curve of first compound; for viability, T/C: stronger effect = lower value
Protocol: Multicellular complex tumor spheroid response to Polymerase (POL) inhibitors (novobiocin, ART-558, RP6685) in combination with a variety of drugs and investigational agents in selected tumor cell lines
The POL inhibitors (novobiocin, ART-558, and RP6685) were evaluated both individually and in combination with standard of care and investigational anticancer small molecules within a complex spheroid model of solid tumors. . Complex spheroids include a stromal component modeled by human endothelial cells (HUVEC) and fibroblasts modeled by human mesenchymal stem cells (MSCs). The concentration ranges selected for each drug and investigational agent were based upon clinically achievable concentrations if the clinical Cmax of the agent was known.
Compounds. The drugs and investigational agents: novobiocin (NSC847541), ART-558 (NSC835418), RP-6685 (NSC848927), peposertib (NSC802822), ceralasertib (NSC780249), elimusertib (NSC800525), camonsertib (NSC841442), AZD-1390 (NSC803789), olaparib (NSC753686), talazoparib (NSC767125), rucaparib (NSC756644), sotorasib (NSC818433), MRTX-1133 (NSC836407), SN-38 (NSC673596), topotecan (NSC609699), epotoside (NSC141540), doxorubicin (NSC123127), gemcitabine (NSC613327), 5-fluorouracil (NSC19893), paclitaxel (NSC125973), vemurafenib (NSC761431), MSA-2 (NSC828583), SN-011 (NSC837082), adavosertib (NSC754352), prexasertib (NSC758257), carboplatin (NSC241240) and oxaliplatin (NSC266046), were obtained from the National Cancer Institute (NCI) Developmental Therapeutics Program Chemical Repository (21). The FDA-approved anticancer drug set is available from the Developmental Therapeutics Program at https://dtp.cancer.gov/organization/dscb/obtaining/. […] The stock solutions were prepared in dimethyl sulfoxide (DMSO, Sigma-Aldrich, St. Louis, MO, cat. D2650), except for the platinum compounds which were prepared in saline (Quality Biological, Gaithersburg, MD, cat. 114-055-101), at 800-fold the tested concentration and stored at -70 degrees C prior to their use. All drugs and investigational agents were tested over a range starting from a high concentration at or near the clinical Cmax and decreasing in half-log increments. If the clinical Cmax for an agent had not been determined, the highest concentration tested was 10 microM, except for SN-38, which was tested at a high concentration of 1 microM.
Cell Culture. All cells were maintained in an incubator at 37 degrees C and 5% CO2 with 95% humidity. The PDC lines were cultured according to standard operating procedures established by the NCI PDMR (https://pdmr.cancer.gov). Table 3 of the manuscript, lists the cell lines along with the number of the three cell types plated to form the mct-spheroids and media for tumor cell growth. After thawing, all PDC lines, except 997537-175-T-J1-PDC and 415267-285-R-J2-PDC, were cultured in Matrigel-coated flasks prepared with a working solution of 1X Ham's F-12 nutrient mix, without supplementation (Thermo Fisher Scientific, cat. 11765054), 100 U/mL penicillin-streptomycin (Thermo Fisher Scientific, cat. 15140122), and 2.5% Matrigel (Corning Inc., Corning, NY, cat. 354248) for the first three passages. The two PDC lines 997537-175-T-J1-PDC and 415267-285-R-J2-PDC were cultured on uncoated flasks. The 857933-349-R-J2-PDC line was cultured in 6C/Colon 1B media containing advanced DMEM/F-12 (Thermo Fisher Scientific, cat. 12634028), 10 mM HEPES (Thermo Fisher Scientific, cat. 15630080), 1X GlutaMAX supplement (Thermo Fisher Scientific, cat. 35050061), 0.1 mg/mL primocin (InvivoGen, San Diego, CA, cat. ant-pm-2), 10% defined fetal bovine serum, heat inactivated (HyClone Laboratories Inc., Logan, UT, cat. SH30070.03HI), 50% L-WRN conditioned media (ATCC, cat. CRL-3276), 1.25 mM N-Acetyl-L-cysteine (Sigma-Aldrich, cat. A9165), 10 mM nicotinamide (Sigma-Aldrich, cat. N0636), 1X B-27 supplement (Thermo Fisher Scientific, cat. 17504044), 1X N-2 supplement (Thermo Fisher Scientific, cat. […]

[1] = second compound 0.0316 µM, first compound 0.0316 µM
[2] = second compound 0.0316 µM, first compound 0.1 µM
[3] = second compound 0.0316 µM, first compound 0.316 µM
[4] = second compound 0.0316 µM, first compound 1 µM
[5] = second compound 0.0316 µM, first compound 3.16 µM
[6] = second compound 0.0316 µM, first compound 10 µM
[7] = second compound 0.1 µM, first compound 0.0316 µM
[8] = second compound 0.1 µM, first compound 0.1 µM
[9] = second compound 0.1 µM, first compound 0.316 µM
[10] = second compound 0.1 µM, first compound 1 µM
[11] = second compound 0.1 µM, first compound 3.16 µM
[12] = second compound 0.1 µM, first compound 10 µM
[13] = second compound 0.316 µM, first compound 0.0316 µM
[14] = second compound 0.316 µM, first compound 0.1 µM
[15] = second compound 0.316 µM, first compound 0.316 µM
[16] = second compound 0.316 µM, first compound 1 µM
[17] = second compound 0.316 µM, first compound 3.16 µM
[18] = second compound 0.316 µM, first compound 10 µM
[19] = second compound 1 µM, first compound 0.0316 µM
[20] = second compound 1 µM, first compound 0.1 µM
[21] = second compound 1 µM, first compound 0.316 µM
[22] = second compound 1 µM, first compound 1 µM
[23] = second compound 1 µM, first compound 3.16 µM
[24] = second compound 1 µM, first compound 10 µM
[25] = second compound 3.16 µM, first compound 0.0316 µM
[26] = second compound 3.16 µM, first compound 0.1 µM
[27] = second compound 3.16 µM, first compound 0.316 µM
[28] = second compound 3.16 µM, first compound 1 µM
[29] = second compound 3.16 µM, first compound 3.16 µM
[30] = second compound 3.16 µM, first compound 10 µM
[31] = second compound 10 µM, first compound 0.0316 µM
[32] = second compound 10 µM, first compound 0.1 µM
[33] = second compound 10 µM, first compound 0.316 µM
[34] = second compound 10 µM, first compound 1 µM
[35] = second compound 10 µM, first compound 3.16 µM
[36] = second compound 10 µM, first compound 10 µM
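Note: spheroids exposed to compounds for one week before readout.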
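Throughout, for viability, T/C: percent viability relative to DMSO vehicle wells taken as 100%.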

For `C#Cc1c(F)ccc2cc(O)cc(-c3ncc4c(N5CC6CCC(C5)N6)nc(OCC56CCCN5CC(F)C6)nc4c3F)c12` (stereo unspecified) + Cc1cccc(N(C)C(=O)C2C(O)CCN2c2nc(C)cc(C(F)(F)F)c2C#N)c1, the IC50 (second compound 0.0316 µM) was > 10 µM, the IC50 (second compound 0.1 µM) was > 10 µM and the IC50 (second compound 0.316 µM) was > 10 µM. The IC50 (second compound 1 µM) was > 10 µM, the IC50 (second compound 3.16 µM) was > 10 µM and the IC50 (second compound 10 µM) was > 10 µM. For the same compound, the viability, T/C [1] was 88.6%, the viability, T/C [2] was 109% and the viability, T/C [3] was 94.2%. The viability, T/C [4] was 101%, the viability, T/C [5] was 113% and the viability, T/C [6] was 71.8%. For the same compound, the viability, T/C [7] was 101%, the viability, T/C [8] was 110% and the viability, T/C [9] was 103%. It also gave a viability, T/C [10] of 109%, a viability, T/C [11] of 103% and a viability, T/C [12] of 73.9%. The viability, T/C [13] was 99.8%, the viability, T/C [14] was 101% and the viability, T/C [15] was 98.1%. For the same compound, the viability, T/C [16] was 99.6%, the viability, T/C [17] was 91.8% and the viability, T/C [18] was 69.8%. For the same compound, the viability, T/C [19] was 103%, the viability, T/C [20] was 107% and the viability, T/C [21] was 94.9%. For the same compound, the viability, T/C [22] was 108%, the viability, T/C [23] was 104% and the viability, T/C [24] was 64.3%. The viability, T/C [25] was 104%, the viability, T/C [26] was 99.2% and the viability, T/C [27] was 101%. The viability, T/C [28] was 101%, the viability, T/C [29] was 103% and the viability, T/C [30] was 66.7%. The viability, T/C [31] was 101%, the viability, T/C [32] was 101% and the viability, T/C [33] was 108%. The viability, T/C [34] was 96.3%, the viability, T/C [35] was 73.9% and the viability, T/C [36] was 67.8%.

`CCc1cc2c(N3CCc4c(cc(Cn5ccnc5)cc4-c4cn(C)nc4C(F)(F)F)C3=O)cc(C)nc2c(OC)n1` + Cc1cccc(N(C)C(=O)C2C(O)CCN2c2nc(C)cc(C(F)(F)F)c2C#N)c1 gave an IC50 (second compound 0.0316 µM) of 2.35 µM, an IC50 (second compound 0.1 µM) of 2.24 µM and an IC50 (second compound 0.316 µM) of 4.28 µM. For the same compound, the IC50 (second compound 1 µM) was 2.82 µM, the IC50 (second compound 3.16 µM) was > 10 µM and the IC50 (second compound 10 µM) was 2.76 µM. It also gave a viability, T/C [1] of 107%, a viability, T/C [2] of 120% and a viability, T/C [3] of 83%. The viability, T/C [4] was 60.6%, the viability, T/C [5] was 46.4% and the viability, T/C [6] was 45.7%. It also gave a viability, T/C [7] of 108%, a viability, T/C [8] of 104% and a viability, T/C [9] of 74.8%. The viability, T/C [10] was 57.4%, the viability, T/C [11] was 49.6% and the viability, T/C [12] was 43.2%. It also gave a viability, T/C [13] of 99.8%, a viability, T/C [14] of 103% and a viability, T/C [15] of 81%. It also gave a viability, T/C [16] of 70.8%, a viability, T/C [17] of 45.7% and a viability, T/C [18] of 49.1%. The viability, T/C [19] was 105%, the viability, T/C [20] was 102% and the viability, T/C [21] was 85%. It also gave a viability, T/C [22] of 66.1%, a viability, T/C [23] of 48% and a viability, T/C [24] of 40%. The viability, T/C [25] was 106%, the viability, T/C [26] was 102% and the viability, T/C [27] was 90.2%. For the same compound, the viability, T/C [28] was 58%, the viability, T/C [29] was 54.6% and the viability, T/C [30] was 50.8%. The viability, T/C [31] was 106%, the viability, T/C [32] was 92.3% and the viability, T/C [33] was 81.7%. It also gave a viability, T/C [34] of 61.1%, a viability, T/C [35] of 48% and a viability, T/C [36] of 40.4%.

For `O=C(c1cc(Cc2n[nH]c(=O)c3ccccc23)ccc1F)N1CCN(C(=O)C2CC2)CC1` + Nc1ccc(C#CCN(C(=O)Cc2ncc(C(F)(F)F)cc2C(F)(F)F)c2ccc(F)cc2)nn1, the IC50 (second compound 0.0316 µM) was > 10 µM, the IC50 (second compound 0.1 µM) was > 10 µM and the IC50 (second compound 0.316 µM) was 8.94 µM. For the same compound, the IC50 (second compound 1 µM) was > 10 µM, the IC50 (second compound 3.16 µM) was > 10 µM and the IC50 (second compound 10 µM) was 9.49 µM. For the same compound, the viability, T/C [1] was 102%, the viability, T/C [2] was 99% and the viability, T/C [3] was 113%. The viability, T/C [4] was 99.9%, the viability, T/C [5] was 88.5% and the viability, T/C [6] was 55.5%. For the same compound, the viability, T/C [7] was 110%, the viability, T/C [8] was 94.7% and the viability, T/C [9] was 104%. For the same compound, the viability, T/C [10] was 94.1%, the viability, T/C [11] was 88.6% and the viability, T/C [12] was 66.9%. The viability, T/C [13] was 105%, the viability, T/C [14] was 103% and the viability, T/C [15] was 92.6%. The viability, T/C [16] was 88.3%, the viability, T/C [17] was 102% and the viability, T/C [18] was 44.8%. The viability, T/C [19] was 99.8%, the viability, T/C [20] was 97.6% and the viability, T/C [21] was 94.4%. The viability, T/C [22] was 103%, the viability, T/C [23] was 80% and the viability, T/C [24] was 55%. For the same compound, the viability, T/C [25] was 112%, the viability, T/C [26] was 107% and the viability, T/C [27] was 99.6%. It also gave a viability, T/C [28] of 93.3%, a viability, T/C [29] of 98.1% and a viability, T/C [30] of 54.1%. For the same compound, the viability, T/C [31] was 96.3%, the viability, T/C [32] was 88.7% and the viability, T/C [33] was 80.7%. For the same compound, the viability, T/C [34] was 79.7%, the viability, T/C [35] was 81.3% and the viability, T/C [36] was 47.9%.

From PubChem BioAssay AID1963843 (Molecular Pharmacology Branch, DTP, NCI, 2024)
